The values below come from ChEMBL document CHEMBL1201862, “PubChem BioAssay data set” (2004).

Some test systems named below: 786-0; CAKI-1; COLO 205; EKVX; HCC 2998; HCT-15; M14; MDA-MB-435; Malme-3M; NCI-H23; NCI-H460; OVCAR-4; SF-295; SF-539; SK-MEL-2; SK-OV-3; SNB-19; TK-10; UACC-257; MOLT-4.
Experiment in all cases: NCI-60 cell line screen, 48 h

Molecules are shown by their SMILES.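 Cells were grown in 96-well plates and exposed to each compound for 48 hours at five concentrations; endpoints were interpolated linearly between bracketing concentrations, or set to the highest concentration if not reached. At the GI50, growth is halved.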 Activity calls are given as the source filed them. Rule as the data show it: active = GI50 up to about 1.1 µM and inactive = higher.

On to `O=S(=O)(c1cnccc1N1CCN(CCO)CC1)N1CCCC1`, for which the GI50 is > 100 µM (inactive) in the assay with 786-0; > 100 µM (inactive) in the assay with CAKI-1; > 100 µM (inactive) in the assay with COLO 205; > 100 µM (inactive) in the assay on EKVX; > 100 µM (inactive) in the assay on HCC 2998; greater than 100 µM in the assay on HCT-15. Further, the GI50 in the assay on M14, in the assay on MDA-MB-435, with Malme-3M, with NCI-H23, in the assay with NCI-H460 and in the assay with OVCAR-4 was > 100 µM (inactive) in each case. For the same compound, the GI50 in the assay with SF-295, with SF-539, with SK-MEL-2, in the assay on SK-OV-3, in the assay with SNB-19 and in the assay with TK-10 was > 100 µM (inactive) throughout. Moreover, in the assay on UACC-257, the GI50 is > 100 µM (inactive).
Regarding `O=C1C(CN2CCCC2)CCCC1CN1CCCC1` (stereo unspecified), the GI50 is 1.07 µM (active) in the assay with 786-0; 1.64 µM (inactive) in the assay with CAKI-1; 1.53 µM (inactive) with COLO 205; 3.52 µM (inactive) in the assay with EKVX; 18.3 µM (inactive) in the assay with HCC 2998; 2.19 µM with HCT-15. The GI50 is 1.74 µM (inactive) in the assay with M14; 2.76 µM (inactive) in the assay with MDA-MB-435; 0.258 µM (active) in the assay on MOLT-4; 0.611 µM (active) with Malme-3M; 1.95 µM (inactive) in the assay on NCI-H23; 22.8 µM (inactive) in the assay on NCI-H460. Further, the GI50 in the assay with OVCAR-4 was 5.75 µM (inactive); in the assay on SF-295, > 38.7 µM (inactive); in the assay with SF-539, 7.36 µM (inactive); with SK-MEL-2, 18.5 µM (inactive); in the assay with SK-OV-3, 17.4 µM (inactive); in the assay on SNB-19, > 100 µM (inactive). Besides, the GI50 was 2.19 µM (inactive) in the assay on TK-10 and 2.1 µM (inactive) in the assay with UACC-257.
With `Clc1ccc(OCc2nnc(CCCCCCCCc3nnc(COc4ccc(Cl)cc4)n3Nc3ccccc3)n2Nc2ccccc2)cc1`, the GI50 with 786-0 was 15.3 µM (inactive); with CAKI-1 it was 0.531 µM (active); with COLO 205, 0.318 µM (active); in the assay on EKVX, 12.9 µM (inactive); with HCC 2998, 12.2 µM (inactive); in the assay with HCT-15 it was 4.06 µM. For the same compound, the GI50 with M14 is 2.08 µM (inactive); in the assay on MDA-MB-435 it was 2.22 µM (inactive); in the assay on MOLT-4, 12.3 µM (inactive); with Malme-3M, 12.5 µM (inactive); in the assay with NCI-H23 it was 18.2 µM (inactive); with NCI-H460, 2.71 µM (inactive). The GI50 in the assay on OVCAR-4 is 15.7 µM (inactive); in the assay with SF-295 it was 0.145 µM (active); in the assay with SF-539 it was 0.962 µM (active); in the assay with SK-MEL-2 it was 16.1 µM (inactive); with SK-OV-3, 17.1 µM (inactive); in the assay with SNB-19, 12.9 µM (inactive). Besides, the values for the GI50 in the assay with TK-10 and with UACC-257 were 23.7 µM (inactive) and 7.35 µM (inactive), respectively.
For `COc1ccc(/C=C/C(=O)c2cccc(C(=O)/C=C/c3ccc(OC)c(OC)c3)n2)cc1OC`, the GI50 in the assay on 786-0 was 11.9 µM (inactive); with CAKI-1, > 57.9 µM (inactive); with COLO 205, > 68.2 µM (inactive); in the assay on EKVX, > 95.9 µM (inactive); with HCC 2998, > 100 µM (inactive); with HCT-15 it was 14 µM. Besides, the GI50 in the assay with M14 is 32.7 µM (inactive); with MDA-MB-435, > 50.9 µM (inactive); with MOLT-4 it was 2.82 µM (inactive); with Malme-3M, 24.5 µM (inactive); in the assay with NCI-H23, 29.2 µM (inactive); in the assay on NCI-H460, 96.8 µM (inactive). Further, the GI50 in the assay on OVCAR-4 is > 100 µM (inactive); in the assay with SF-295, > 73.8 µM (inactive); with SF-539, 14.4 µM (inactive); with SK-MEL-2, > 100 µM (inactive); in the assay on SK-OV-3, > 100 µM (inactive); with SNB-19, 27 µM (inactive). Also, the GI50 is > 100 µM (inactive) in the assay on TK-10 and 39.6 µM (inactive) in the assay with UACC-257.
As for `COC(=O)[C@@H](NC(=O)c1ccc(CNC(=O)/C(C)=C/c2ccccc2)cc1)C(C)C`, the GI50 in the assay with 786-0 is > 100 µM (inactive); with CAKI-1, > 100 µM (inactive); in the assay with COLO 205 it was 67.9 µM (inactive); in the assay with EKVX, 35.4 µM (inactive); in the assay on HCC 2998 it was 26.9 µM (inactive); in the assay with HCT-15 it was greater than 100 µM. The GI50 is 61.2 µM (inactive) in the assay with M14; 70 µM (inactive) in the assay with MDA-MB-435; 78.2 µM (inactive) with MOLT-4; > 100 µM (inactive) in the assay with Malme-3M; > 100 µM (inactive) with NCI-H23; 65 µM (inactive) with NCI-H460. Also, the GI50 in the assay with OVCAR-4 is 56.8 µM (inactive); in the assay on SF-295 it was > 100 µM (inactive); with SF-539, > 100 µM (inactive); with SK-MEL-2, 51.1 µM (inactive); in the assay on SK-OV-3, > 100 µM (inactive); in the assay with SNB-19, > 100 µM (inactive). Besides, the GI50 is > 100 µM (inactive) in the assay on TK-10 and 14.2 µM (inactive) in the assay with UACC-257.
In the case of `C/C=C\C1OC1(C)c1cc(=O)c2c(C)cc3c(c2o1)C(=O)c1c(O)c(C2CC(C)(N(C)C)C(OC(C)=O)C(C)O2)cc(C2CC(N(C)C)C(O)C(C)O2)c1C3=O` (stereo unspecified), the GI50 is < 0.00375 µM (active) in the assay on 786-0; < 0.00375 µM (active) in the assay with CAKI-1; < 0.00375 µM (active) in the assay on COLO 205; 0.00836 µM (active) in the assay on EKVX; < 0.00375 µM (active) in the assay on HCC 2998; 0.00404 µM in the assay on HCT-15. The GI50 was < 0.00375 µM (active) in the assay with M14; 0.00449 µM (active) with MDA-MB-435; < 0.00375 µM (active) in the assay with MOLT-4; 0.0124 µM (active) in the assay with Malme-3M; < 0.00375 µM (active) in the assay on NCI-H23; < 0.00375 µM (active) in the assay with NCI-H460. Also, the GI50 was 0.00461 µM (active) in the assay on OVCAR-4; < 0.00375 µM (active) with SF-295; 0.00433 µM (active) in the assay on SF-539; 0.00463 µM (active) in the assay on SK-MEL-2; 0.00432 µM (active) with SK-OV-3; 0.00621 µM (active) with SNB-19. Besides, the results for the GI50 with TK-10 and in the assay on UACC-257 were 0.0113 µM (active) and 0.00984 µM (active), respectively.
Take `C/C(=N\NC1=NCCN1)c1cn(C2=NCCN2)nc1C`: the GI50 in the assay on 786-0 was > 100 µM (inactive); with CAKI-1 it was > 100 µM (inactive); in the assay with COLO 205 it was > 100 µM (inactive); with EKVX it was > 100 µM (inactive); in the assay on HCC 2998, > 100 µM (inactive); in the assay with HCT-15, greater than 100 µM. Besides, the GI50 in the assay on M14, in the assay on MDA-MB-435, in the assay on Malme-3M, in the assay on NCI-H23, in the assay with NCI-H460 and in the assay with OVCAR-4 was > 100 µM (inactive) in each case. For the same compound, the GI50 with SF-295, in the assay with SF-539, in the assay with SK-MEL-2, in the assay with SK-OV-3, in the assay on SNB-19 and in the assay with TK-10 was > 100 µM (inactive) each time. In addition, the GI50 in the assay on UACC-257 is > 100 µM (inactive).
As to `COc1cc2c(cc1OC)[C@H](C)N1CCc3cc(OC)c(OC)cc3[C@@H]1C2`, the GI50 in the assay with 786-0 is > 100 µM (inactive); in the assay with CAKI-1, > 100 µM (inactive); in the assay on COLO 205 it was > 100 µM (inactive); in the assay with EKVX it was > 100 µM (inactive); in the assay on HCC 2998 it was > 100 µM (inactive); in the assay with HCT-15 it was greater than 100 µM. In addition, the GI50 in the assay on MDA-MB-435, in the assay on MOLT-4, with Malme-3M, with NCI-H23, in the assay on NCI-H460 and with OVCAR-4 was > 100 µM (inactive) each time. Besides, the GI50 in the assay with SF-295, with SF-539, in the assay on SK-MEL-2, in the assay with SK-OV-3, in the assay with SNB-19 and in the assay with TK-10 was > 100 µM (inactive) each time. Moreover, the GI50 in the assay on UACC-257 is > 100 µM (inactive).
On to `COc1cc([N+](=O)[O-])c(S(=O)(=O)[O-])cc1-[n+]1nc(C(=O)Nc2ccccc2)nn1-c1ccc([N+](=O)[O-])c(S(=O)(=O)O)c1`, for which the GI50 with 786-0 was > 100 µM (inactive); in the assay with CAKI-1 it was > 100 µM (inactive); in the assay on COLO 205 it was > 100 µM (inactive); in the assay with EKVX it was > 100 µM (inactive); with HCC 2998, > 100 µM (inactive); in the assay with HCT-15, greater than 100 µM. Moreover, the GI50 with M14, with MDA-MB-435, in the assay on MOLT-4, in the assay on Malme-3M, in the assay with NCI-H23 and in the assay with NCI-H460 was > 100 µM (inactive) throughout. In addition, the GI50 in the assay with OVCAR-4, in the assay with SF-295, in the assay on SF-539, in the assay with SK-MEL-2, in the assay on SK-OV-3 and in the assay with SNB-19 was > 100 µM (inactive) throughout. For the same compound, the GI50 in the assay with TK-10 is > 100 µM (inactive).
As for `CN(C)CCCNc1ccc2c(=O)n(CCN(C)C)c(=O)n3c4ccccc4c(=O)c1c23`, the GI50 was 0.0419 µM (active) in the assay on 786-0; 0.211 µM (active) with CAKI-1; 0.127 µM (active) in the assay on COLO 205; 0.272 µM (active) in the assay with EKVX; 0.112 µM (active) in the assay on HCC 2998; 0.0562 µM with HCT-15. Also, the GI50 in the assay with M14 is 0.394 µM (active); in the assay with MDA-MB-435, 0.259 µM (active); in the assay on MOLT-4, 0.0268 µM (active); in the assay on Malme-3M, 0.286 µM (active); in the assay on NCI-H23 it was 0.236 µM (active); with NCI-H460 it was 0.0335 µM (active). Further, the GI50 is 0.224 µM (active) in the assay on OVCAR-4; 0.245 µM (active) with SF-295; 0.486 µM (active) in the assay on SF-539; 0.798 µM (active) in the assay on SK-MEL-2; 0.582 µM (active) in the assay on SK-OV-3; 0.132 µM (active) with SNB-19. The GI50 in the assay with TK-10 is 0.518 µM (active); with UACC-257, 0.396 µM (active).
